Test results published in ChEMBL document CHEMBL3751715, “Design and synthesis of an activity-based protein profiling probe derived from cinnamic hydroxamic acid” (Bioorg Med Chem, 2016).
≈ marks a conversion by molar mass, not a printed value.

Key:
[1] = test system: Hepatitis C virus; test: Antiviral activity against HCV assessed as reduction of viral replicon RNA level by RT-qPCR analysis; format: functional, organism-based; settings: Hepacivirus hominis
[2] = Thermodynamic solubility of the compound in DPBS buffer at pH 7.4 after 72 hrs by UV spectrometric analysis; format: physicochemical; settings: read-out: Therm_solubility
[3] = Half life in mouse plasma at 1 to 24 hrs by LC-MS/MS analysis; format: ADME, cell-free
[4] = Half life in human plasma at 1 to 24 hrs by LC-MS/MS analysis; format: ADME, cell-free
[5] = Half life in mouse liver microsomes at 1 uM by LC-MS/MS analysis in presence of NADPH; format: ADME
[6] = Half life in human liver microsomes at 1 uM by LC-MS/MS analysis in presence of NADPH; format: ADME
[7] = Half life in mouse liver microsomes at 1 uM by LC-MS/MS analysis in presence of UDPGA; format: ADME
[8] = Half life in human liver microsomes at 1 uM by LC-MS/MS analysis in presence of UDPGA; format: ADME
[9] = molecular target: Histone deacetylase 1 (Homo sapiens, UniProt Q13547); test: Inhibition of full length C-terminal GST-tagged human HDAC1 expressed in Sf9 cells using (Arg-His-Lys-Lys(Ac)) as substrate by plate reader analysis
[10] = molecular target: Histone deacetylase 2 (Homo sapiens, UniProt Q92769); test: Inhibition of full length C-terminal His-tagged human HDAC2 expressed in Sf9 cells using (Arg-His-Lys-Lys(Ac)) as substrate by plate reader analysis
[11] = molecular target: Histone deacetylase 3 (Homo sapiens, UniProt O15379); test: Inhibition of full length C-terminal His-tagged human HDAC3 expressed in baculovirus expression system using (Arg-His-Lys-Lys(Ac)) as substrate by plate reader analysis
[12] = molecular target: Histone deacetylase 4 (Homo sapiens, UniProt P56524); test: Inhibition of N-terminal GST-tagged human HDAC4 expressed in baculovirus expression system using (Boc-Lys(trifluoroacetyl)-AMC) as substrate by plate reader analysis
[13] = molecular target: Histone deacetylase 5 (Homo sapiens, UniProt Q9UQL6); test: Inhibition of full length N-terminal GST-tagged human HDAC5 expressed in Sf9 cells using (Boc-Lys(trifluoroacetyl)-AMC) as substrate by plate reader analysis
[14] = molecular target: Protein deacetylase HDAC6 (Homo sapiens, UniProt Q9UBN7); test: Inhibition of full length N-terminal GST-tagged human HDAC6 expressed in Sf9 cells using (Arg-His-Lys-Lys(Ac)) as substrate by plate reader analysis
[15] = molecular target: Histone deacetylase 7 (Homo sapiens, UniProt Q8WUI4); test: Inhibition of N-terminal GST-tagged human HDAC7 expressed in baculovirus expression system using (Boc-Lys(trifluoroacetyl)-AMC) as substrate by plate reader analysis
Sequence of Histone deacetylase 7 (Q8WUI4 whole entry): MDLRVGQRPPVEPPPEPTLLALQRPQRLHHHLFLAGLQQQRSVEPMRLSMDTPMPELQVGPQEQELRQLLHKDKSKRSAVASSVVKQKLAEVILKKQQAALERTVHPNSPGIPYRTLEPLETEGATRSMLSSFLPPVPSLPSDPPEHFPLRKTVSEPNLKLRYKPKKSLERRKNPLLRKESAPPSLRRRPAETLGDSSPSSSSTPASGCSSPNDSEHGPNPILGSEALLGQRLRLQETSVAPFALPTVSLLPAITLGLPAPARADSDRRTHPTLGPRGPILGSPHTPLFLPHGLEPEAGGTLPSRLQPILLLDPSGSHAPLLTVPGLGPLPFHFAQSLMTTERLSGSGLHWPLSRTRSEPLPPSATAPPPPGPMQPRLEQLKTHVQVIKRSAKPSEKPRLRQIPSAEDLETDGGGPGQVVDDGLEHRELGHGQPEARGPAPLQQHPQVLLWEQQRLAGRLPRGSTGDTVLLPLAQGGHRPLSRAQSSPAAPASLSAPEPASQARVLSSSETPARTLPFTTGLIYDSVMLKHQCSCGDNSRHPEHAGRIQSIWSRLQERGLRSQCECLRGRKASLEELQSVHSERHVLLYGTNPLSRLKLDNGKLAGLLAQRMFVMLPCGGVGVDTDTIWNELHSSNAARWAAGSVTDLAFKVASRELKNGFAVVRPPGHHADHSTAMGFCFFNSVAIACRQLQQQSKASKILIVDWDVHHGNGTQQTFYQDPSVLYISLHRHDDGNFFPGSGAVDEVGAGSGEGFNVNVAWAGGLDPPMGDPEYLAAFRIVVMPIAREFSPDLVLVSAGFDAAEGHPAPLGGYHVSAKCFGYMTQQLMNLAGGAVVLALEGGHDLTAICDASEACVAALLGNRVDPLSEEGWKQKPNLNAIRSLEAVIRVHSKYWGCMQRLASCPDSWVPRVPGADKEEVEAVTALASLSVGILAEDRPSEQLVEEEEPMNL

[16] = molecular target: Histone deacetylase 8 (Homo sapiens, UniProt Q9BY41); test: Inhibition of full length human HDAC8 expressed in Escherichia coli using (Arg-His-Lys(Ac)-Lys(Ac)) as substrate by plate reader analysis
[17] = molecular target: Histone deacetylase 9 (Homo sapiens, UniProt Q9UKV0); test: Inhibition of C-terminal His-tagged human HDAC9 expressed in baculovirus expression system using (Boc-Lys(trifluoroacetyl)-AMC) as substrate by plate reader analysis
Sequence of Histone deacetylase 9 (Q9UKV0 whole entry): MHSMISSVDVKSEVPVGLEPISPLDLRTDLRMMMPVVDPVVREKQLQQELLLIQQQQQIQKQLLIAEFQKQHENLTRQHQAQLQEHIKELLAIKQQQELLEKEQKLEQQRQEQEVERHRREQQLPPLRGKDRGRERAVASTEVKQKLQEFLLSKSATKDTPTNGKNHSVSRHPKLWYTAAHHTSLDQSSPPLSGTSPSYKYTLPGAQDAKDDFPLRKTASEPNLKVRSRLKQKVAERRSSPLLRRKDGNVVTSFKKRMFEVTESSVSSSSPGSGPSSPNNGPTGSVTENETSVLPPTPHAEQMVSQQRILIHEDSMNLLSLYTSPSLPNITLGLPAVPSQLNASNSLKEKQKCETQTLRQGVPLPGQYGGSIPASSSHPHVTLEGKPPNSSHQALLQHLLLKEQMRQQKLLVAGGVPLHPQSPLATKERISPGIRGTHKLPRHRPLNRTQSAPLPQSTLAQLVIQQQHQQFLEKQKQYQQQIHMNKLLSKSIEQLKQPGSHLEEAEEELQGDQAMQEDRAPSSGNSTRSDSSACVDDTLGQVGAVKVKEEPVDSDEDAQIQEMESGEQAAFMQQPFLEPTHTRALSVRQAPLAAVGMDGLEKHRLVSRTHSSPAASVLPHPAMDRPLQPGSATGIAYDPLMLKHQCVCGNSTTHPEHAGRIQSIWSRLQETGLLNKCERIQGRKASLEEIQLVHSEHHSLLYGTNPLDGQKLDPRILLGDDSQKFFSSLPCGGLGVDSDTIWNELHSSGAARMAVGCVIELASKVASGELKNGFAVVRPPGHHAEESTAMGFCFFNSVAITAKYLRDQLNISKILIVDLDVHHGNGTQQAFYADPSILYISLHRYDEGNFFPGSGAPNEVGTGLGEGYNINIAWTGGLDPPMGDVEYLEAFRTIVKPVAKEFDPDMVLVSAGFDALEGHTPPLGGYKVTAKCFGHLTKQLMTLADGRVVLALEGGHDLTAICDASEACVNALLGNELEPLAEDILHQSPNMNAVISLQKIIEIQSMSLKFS

[18] = molecular target: Polyamine deacetylase HDAC10 (Homo sapiens, UniProt Q969S8); test: Inhibition of N-terminal GST-tagged human HDAC10 expressed in Sf9 cells using (Arg-His-Lys-Lys(Ac)) as substrate by plate reader analysis
Sequence of Polyamine deacetylase HDAC10 (Q969S8 whole entry): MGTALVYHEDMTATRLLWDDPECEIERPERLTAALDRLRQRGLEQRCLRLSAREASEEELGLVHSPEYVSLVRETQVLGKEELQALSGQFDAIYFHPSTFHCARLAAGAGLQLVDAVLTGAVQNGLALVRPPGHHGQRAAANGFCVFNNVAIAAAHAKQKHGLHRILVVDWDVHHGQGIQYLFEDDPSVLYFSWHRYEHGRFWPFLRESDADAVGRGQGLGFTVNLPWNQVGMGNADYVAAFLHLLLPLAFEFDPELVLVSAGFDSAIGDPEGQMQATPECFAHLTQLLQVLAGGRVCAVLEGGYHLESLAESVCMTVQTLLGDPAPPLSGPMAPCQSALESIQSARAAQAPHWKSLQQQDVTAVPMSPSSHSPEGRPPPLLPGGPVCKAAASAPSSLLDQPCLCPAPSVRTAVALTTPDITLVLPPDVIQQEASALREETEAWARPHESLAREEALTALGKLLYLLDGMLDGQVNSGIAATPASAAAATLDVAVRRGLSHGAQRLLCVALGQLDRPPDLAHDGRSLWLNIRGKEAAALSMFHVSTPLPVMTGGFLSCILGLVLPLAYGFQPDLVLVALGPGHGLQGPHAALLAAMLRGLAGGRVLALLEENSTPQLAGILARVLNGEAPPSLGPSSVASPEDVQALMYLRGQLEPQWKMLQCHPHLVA

[19] = molecular target: Histone deacetylase 11 (Homo sapiens, UniProt Q96DB2); test: Inhibition of N-terminal GST-tagged human HDAC11 expressed in baculovirus expression system using (Arg-His-Lys-Lys(Ac)) as substrate by plate reader analysis
Sequence of Histone deacetylase 11 (Q96DB2 whole entry): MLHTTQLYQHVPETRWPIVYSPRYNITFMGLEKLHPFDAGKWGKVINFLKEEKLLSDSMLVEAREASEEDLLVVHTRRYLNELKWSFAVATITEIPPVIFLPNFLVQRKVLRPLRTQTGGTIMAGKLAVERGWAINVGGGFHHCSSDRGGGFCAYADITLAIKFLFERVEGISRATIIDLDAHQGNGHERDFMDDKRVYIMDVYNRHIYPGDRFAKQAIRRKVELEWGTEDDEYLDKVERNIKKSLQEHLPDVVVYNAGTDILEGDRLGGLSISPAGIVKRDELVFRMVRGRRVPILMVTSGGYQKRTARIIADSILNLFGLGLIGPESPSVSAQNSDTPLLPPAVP

[20] = molecular target: Interstitial collagenase (Homo sapiens, UniProt P03956); test: Inhibition of human recombinant MMP1 expressed in Escherichia coli using (5-FAM/QXLTM) FRET peptide as substrate
Sequence of Interstitial collagenase (P03956 whole entry): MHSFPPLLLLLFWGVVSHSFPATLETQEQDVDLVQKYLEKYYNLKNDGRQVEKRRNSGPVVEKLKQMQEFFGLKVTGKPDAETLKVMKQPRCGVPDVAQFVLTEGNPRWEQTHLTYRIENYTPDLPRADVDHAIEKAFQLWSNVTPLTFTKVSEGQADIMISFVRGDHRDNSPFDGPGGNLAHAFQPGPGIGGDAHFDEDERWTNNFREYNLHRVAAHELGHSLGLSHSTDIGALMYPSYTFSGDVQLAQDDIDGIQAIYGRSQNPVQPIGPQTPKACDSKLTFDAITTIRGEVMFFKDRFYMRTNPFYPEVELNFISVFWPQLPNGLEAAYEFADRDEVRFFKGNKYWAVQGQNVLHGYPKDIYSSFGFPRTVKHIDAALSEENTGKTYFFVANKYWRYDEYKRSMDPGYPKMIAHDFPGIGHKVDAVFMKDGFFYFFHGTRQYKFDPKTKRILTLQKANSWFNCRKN

[21] = molecular target: Stromelysin-1 (Homo sapiens, UniProt P08254); test: Inhibition of human recombinant MMP3 expressed in Escherichia coli using (5-FAM/QXLTM) FRET peptide as substrate
[22] = test system: Hepatitis C virus subtype 1b; test: Inhibition of recombinant HCV genotype 1b NS5B Cdelta55 RNA dependent RNA polymerase at 10 uM incubated for 3 hrs using Oligo-U12 primer, UTP and Poly(A) template by scintillation proximity assay
[23] = molecular target: Matrilysin (Homo sapiens, UniProt P09237); test: Inhibition of human recombinant MMP7 expressed in Escherichia coli using (5-FAM/QXLTM) FRET peptide as substrate
Sequence of Matrilysin (P09237 whole entry): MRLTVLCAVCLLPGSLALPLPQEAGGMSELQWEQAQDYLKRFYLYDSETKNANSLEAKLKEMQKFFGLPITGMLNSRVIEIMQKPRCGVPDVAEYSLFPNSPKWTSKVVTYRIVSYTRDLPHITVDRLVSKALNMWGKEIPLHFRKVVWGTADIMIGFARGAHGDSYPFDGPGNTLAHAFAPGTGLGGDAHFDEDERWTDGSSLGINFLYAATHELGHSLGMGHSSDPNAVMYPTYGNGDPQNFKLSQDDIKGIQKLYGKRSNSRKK

[24] = molecular target: Neutrophil collagenase (Homo sapiens, UniProt P22894); test: Inhibition of human recombinant MMP8 expressed in Escherichia coli using (5-FAM/QXLTM) FRET peptide as substrate
Sequence of Neutrophil collagenase (P22894 whole entry): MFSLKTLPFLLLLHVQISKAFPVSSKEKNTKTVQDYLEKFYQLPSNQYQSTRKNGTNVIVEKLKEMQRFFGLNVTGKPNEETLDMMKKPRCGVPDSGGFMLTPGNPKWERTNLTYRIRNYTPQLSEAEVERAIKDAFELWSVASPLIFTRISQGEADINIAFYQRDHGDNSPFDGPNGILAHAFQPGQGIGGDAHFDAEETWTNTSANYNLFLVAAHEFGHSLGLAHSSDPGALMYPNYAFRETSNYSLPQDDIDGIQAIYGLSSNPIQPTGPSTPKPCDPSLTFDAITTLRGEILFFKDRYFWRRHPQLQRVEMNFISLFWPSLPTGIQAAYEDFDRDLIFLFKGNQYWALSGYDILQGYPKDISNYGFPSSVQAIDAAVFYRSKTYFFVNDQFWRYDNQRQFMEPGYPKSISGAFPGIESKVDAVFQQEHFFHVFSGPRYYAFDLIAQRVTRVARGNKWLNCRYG

[25] = molecular target: Matrix metalloproteinase-9 (Homo sapiens, UniProt P14780); test: Inhibition of human recombinant MMP9 expressed in Escherichia coli using (5-FAM/QXLTM) FRET peptide as substrate
[26] = molecular target: Stromelysin-2 (Homo sapiens, UniProt P09238); test: Inhibition of human recombinant MMP10 expressed in Escherichia coli using (5-FAM/QXLTM) FRET peptide as substrate
Sequence of Stromelysin-2 (P09238 whole entry): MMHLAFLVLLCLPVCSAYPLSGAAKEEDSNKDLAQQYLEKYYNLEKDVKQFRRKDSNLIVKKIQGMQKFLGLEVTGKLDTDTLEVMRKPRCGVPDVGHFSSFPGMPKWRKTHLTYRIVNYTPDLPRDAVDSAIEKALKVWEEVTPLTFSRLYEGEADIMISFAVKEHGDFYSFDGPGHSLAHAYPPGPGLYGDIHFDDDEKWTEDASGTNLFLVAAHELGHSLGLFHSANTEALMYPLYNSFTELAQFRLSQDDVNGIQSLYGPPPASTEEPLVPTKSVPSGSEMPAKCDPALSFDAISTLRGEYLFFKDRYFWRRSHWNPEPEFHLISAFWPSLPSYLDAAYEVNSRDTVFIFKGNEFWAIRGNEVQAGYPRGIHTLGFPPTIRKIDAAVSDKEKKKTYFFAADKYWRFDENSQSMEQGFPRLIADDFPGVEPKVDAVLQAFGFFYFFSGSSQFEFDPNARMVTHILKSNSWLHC

[27] = molecular target: Macrophage metalloelastase (Homo sapiens, UniProt P39900); test: Inhibition of human recombinant MMP12 expressed in Escherichia coli using (5-FAM/QXLTM) FRET peptide as substrate
[28] = molecular target: Collagenase 3 (Homo sapiens, UniProt P45452); test: Inhibition of human recombinant MMP13 expressed in Escherichia coli using (5-FAM/QXLTM) FRET peptide as substrate
[29] = molecular target: Matrix metalloproteinase-14 (Homo sapiens, UniProt P50281); test: Inhibition of human recombinant MMP14 expressed in Escherichia coli using (5-FAM/QXLTM) FRET peptide as substrate
[30] = molecular target: Disintegrin and metalloproteinase domain-containing protein 17 (Homo sapiens, UniProt P78536); test: Inhibition of human recombinant TACE expressed in Sf21 cells using MCA-PLAQAV-Dpa-RSSSR-NH2 as substrate
[31] = Inhibition of recombinant HCV genotype 1b NS3/4A protease expressed in Escherichia coli using Ac-DE-D(Edans)-EE-Abu-[COO]-AS-K(Dabcyl)-NH2 as substrate; parameters: species or system Hepatitis C virus subtype 1b
[32] = test system: Hepatitis C virus; test: Antiviral activity against HCV genotype 1b replicon infected in human HuH7 cells at 10 uM after 3 days by luciferase reporter assay; format: functional, Hepacivirus hominis; settings: Huh-7, 72 h
[33] = Cytotoxicity against human HuH7 cells assessed as inhibition of cell viability at 10 uM after 3 days by CellTiter 96 aqueous one solution cell proliferation assay; format: cell-based, Huh-7; settings: read-out: Activity
[34] = test system: Hepatitis C virus; test: Antiviral activity against HCV genotype 1b replicon infected in human HuH7 cells after 3 days by luciferase reporter assay; format: functional, organism-based, Hepacivirus hominis; settings: Huh-7, 72 h
[35] = Cytotoxicity against human HuH7 cells assessed as cell viability after 3 days by CellTiter 96 aqueous one solution cell proliferation assay; format: cell-based, Huh-7
[36] = Therapeutic index, ratio of CC50 for human HuH7 cells to EC50 for HCV genotype 1b replicon; format: cell-based, Huh-7; settings: read-out: Ratio CC50/EC50

Structure (SMILES): O=C(NO)c1sc2ccccc2c1S(=O)(=O)c1ccccc1
- Activity [1]: Dose-dependent effect
- solubility thermodynamic at 72 h [2]: 3350 µM (≈ 1120 µg/mL)
- half-life [3]: > 24 h
- half-life [4]: > 24 h
- half-life at 1 µM [5]: 1.31 h
- half-life at 1 µM [6]: 12.8 h
- half-life at 1 µM [7]: 0.0283 h
- half-life at 1 µM [8]: 0.0233 h

Structure (SMILES): O=C(/C=C/c1ccc(C(F)(F)F)cc1)NO
- Activity [1]: Dose-dependent effect
- IC50 [9]: 4.11 µM
- IC50 [10]: 6.36 µM
- IC50 [11]: 5.37 µM
- IC50 [12]: > 100 µM
- IC50 [13]: 34.7 µM
- IC50 [14]: 0.183 µM
- IC50 [15]: > 100 µM
- IC50 [16]: 0.954 µM
- IC50 [17]: > 100 µM
- IC50 [18]: 6.32 µM
- IC50 [19]: 5.53 µM
- IC50 [20]: > 100 µM
- IC50 [21]: > 100 µM
- inhibition [22]: < 5%
- IC50 [23]: > 100 µM
- IC50 [24]: > 100 µM
- IC50 [25]: > 100 µM
- IC50 [26]: > 100 µM
- IC50 [27]: > 100 µM
- IC50 [28]: > 100 µM
- IC50 [29]: > 100 µM
- IC50 [30]: 21.5 µM
- IC50 [31]: > 200 µM
- solubility thermodynamic at 72 h [2]: 648 µM (≈ 150 µg/mL)
- half-life [3]: 23.2 h
- half-life [4]: > 24 h
- half-life at 1 µM [5]: 0.77 h
- half-life at 1 µM [6]: 11.6 h
- half-life at 1 µM [7]: 0.247 h
- half-life at 1 µM [8]: 8.88 h

Structure (SMILES): C#CCCCC(=O)NCCOCCOCCOc1ccc(C(=O)c2ccc(/C=C/C(=O)O)cc2)cc1
- inhibition at 10 µM [32]: < 5%
- inhibition at 72 h, 10 µM [33]: < 5%

Structure (SMILES): [N-]=[N+]=NCCCNC(=O)CCCC[C@@H]1SC[C@@H]2NC(=O)N[C@@H]21
- inhibition at 10 µM [32]: < 10%
- inhibition at 72 h, 10 µM [33]: < 5%

Structure (SMILES): C#CCCCC(=O)NCCOCCOCCOc1ccc(C(=O)c2ccc(/C=C/C(=O)NO)cc2)cc1
- EC50 [34]: 1.2 µM
- CC50 at 72 h [35]: 25 µM
- selectivity ratio [36]: 21

Structure (SMILES): O=C(/C=C/c1ccc(C(=O)c2ccccc2)cc1)NO
- EC50 [34]: 0.48 µM
- CC50 at 72 h [35]: 16 µM
- selectivity ratio [36]: 33
